The compounds below were run on Uracil-DNA glycosylase (Herpes simplex virus type 1) (assay: Inhibitory potency against HSV-1 UDG( Herpes Simplex virus type-I Uracil DNA glycosylase); 10-15% inhibition was observed at a concentration of 40 uM). Conditions: Human alphaherpesvirus 1.

inhibition, 15%:
CCCCCCc1ccc(Nc2cc(=O)[nH]c(=O)n2CC)cc1
CCCCCCc1ccc(Nc2cc(=O)[nH]c(=O)n2C)cc1
CCCCCCc1ccc(Nc2cc(=O)[nH]c(=O)n2CCC)cc1
